# Source: US20180071354A1, “SELECTIVE BREEDING METHOD OF ANTITUMOR/ANTICANCER CAMELLIA SINENSIS STRAIN, AND TEA PRODUCT OF SUCH STRAIN” (FUJIAN AGRICULTURE AND FORESTRY UNIVERSITY, priority 2015, published 2018)
# Experiments:
# Format in all cases: cell-based
# [1] = tested on: human ovarian cancer cell line SK-OV-3; test: In vitro antitumor/anticancer testing (CCK-8), SK-OV-3; settings: 48 h
# Experimental: (§1) Each of Tea Product 1 and Conventional Tea Product obtained in section A of this example was used to prepare test tea samples according to the method described below. A proper amount of the respective tea product was added into sterile water to prepare a stock solution with a concentration of 100 mg/mL, followed by using a membrane filter with a pore size of 0.22 μm to conduct vacuum filtration and sterilization. The resulting stock solution was diluted with a respective complete medium shown in Table 3 below to form test tea samples with different concentrations. In other words, the thus obtained test tea samples to be used for treating a respective cancer/tumor cell line shown in Table 3 were prepared using the same complete medium as that for the respective cancer/tumor cell line. […] Specifically, each of the aforesaid commercially available agents was subjected to the method described below to prepare comparative test samples. A proper amount of a respective commercially available agent was dissolved in phosphate-buffered saline (PBS) to prepare a stock solution with a concentration of 5 mg/mL, followed by using a membrane filter with a pore size of 0.22 μm to conduct vacuum filtration and sterilization. The resulting stock solution was diluted with a respective complete medium shown in Table 3 below to form comparative test samples with different concentrations. To be specific, the comparative test samples prepared from the respective commercially available agent have the concentrations shown in Table 2 below. The thus obtained comparative test samples to be used for treating a respective cancer/tumor cell line shown in Table 3 were prepared using the same complete medium as that for the respective cancer/tumor cell line. […] The cultivation of each cancer/tumor cell line is described as follows. […] Afterwards, a cell suspension having a cell density of 1.0×10^4 cells/mL was prepared. […] As experimental groups, the tumor/cancer cells of each cell line were treated with the test tea samples prepared from one or more of the tea products and the comparative test samples prepared from one or more of the commercially available agents as obtained in section B of this example (for more detailed information about the tea product(s) and the commercially available product (s) used to treat each cell line, please see Table 4 below). To be specific, 6 to 10 test tea samples prepared from the same tea product and having different concentrations, as well as 6 to 10 comparative test samples prepared from the same commercially available agent and having different concentrations, were utilized to treat the tumor/cancer cells of each cell line. For each experimental group, 6 repetitions of tumor/cancer treatment were performed. For the control group, 100 μL of PBS was added to a well containing the medium and the cancer/tumor cells of the respective cell line. For the blank group, 100 μL of PBS was added to a well containing a complete medium the same as that used for cultivation of the cancer/tumor cells of the respective cell line. After the treatment described above, cultivation was conducted in an incubator (37° C., 100% relative humidity, 5% CO2) for 48 hours. Subsequently, the liquid containing the medium and the sample in the well was removed, and a respective complete medium (shown in Table 3 above) containing 10% CCK-8 (Cell Counting Kit-8)(Dojindo Molecular Technologies, Inc., Cat. No. CK04-13) was added. Cultivation was performed in an incubator (37° C.) for 2 to 4 hours, followed by gently shaking.
# [2] = tested on: human glioblastoma cell line U-87MG; test: In vitro antitumor/anticancer testing (CCK-8), U-87MG; settings: 48 h
# Experimental: as §1
# [3] = tested on: human lung cancer cell line A549; test: In vitro antitumor/anticancer testing (CCK-8), A549; settings: 48 h
# Experimental: as §1
# [4] = tested on: human cervical cancer cell line Hela; test: In vitro antitumor/anticancer testing (CCK-8), Hela; settings: 48 h
# Experimental: as §1
# [5] = tested on: human mammary gland/duct cancer cell line BT-474; test: In vitro antitumor/anticancer testing (CCK-8), BT-474; settings: Homo sapiens, BT-474, 48 h
# Experimental: as §1
# [6] = tested on: human prostate cancer cell line PC-3; test: In vitro antitumor/anticancer testing (CCK-8), PC-3; settings: Homo sapiens, 48 h
# Experimental: Each of Tea Product 1 and Conventional Tea Product obtained in section A of this example was used to prepare test tea samples according to the method described below. A proper amount of the respective tea product was added into sterile water to prepare a stock solution with a concentration of 100 mg/mL, followed by using a membrane filter with a pore size of 0.22 μm to conduct vacuum filtration and sterilization. The resulting stock solution was diluted with a respective complete medium shown in Table 3 below to form test tea samples with different concentrations. In other words, the thus obtained test tea samples to be used for treating a respective cancer/tumor cell line shown in Table 3 were prepared using the same complete medium as that for the respective cancer/tumor cell line.
# Specifically, each of the aforesaid commercially available agents was subjected to the method described below to prepare comparative test samples. A proper amount of a respective commercially available agent was dissolved in phosphate-buffered saline (PBS) to prepare a stock solution with a concentration of 5 mg/mL, followed by using a membrane filter with a pore size of 0.22 μm to conduct vacuum filtration and sterilization. The resulting stock solution was diluted with a respective complete medium shown in Table 3 below to form comparative test samples with different concentrations. To be specific, the comparative test samples prepared from the respective commercially available agent have the concentrations shown in Table 2 below. The thus obtained comparative test samples to be used for treating a respective cancer/tumor cell line shown in Table 3 were prepared using the same complete medium as that for the respective cancer/tumor cell line.
# The following cancer/tumor cells purchased from Chinese Academy of Sciences, Shanghai Institutes for Biological Sciences, Institute of Biochemistry and Cell Biology were used for in vitro antitumor/anticancer testing: human liver cancer cell line HepG2, human ovarian cancer cell line SK-OV-3, human cervical cancer cell line Hela, human lung cancer cell line A549, human glioblastoma cell line U-87MG, human mammary gland/duct cancer cell line BT-474, human prostate cancer cell line PC-3, human leukemia cell line HL-60, human gastric cancer cell line SMMC-7721, human colon cancer cell line HCT-116, human squamous cell carcinoma cell line A431, human leukemia cell line K562, human pancreatic cancer cell line PANC-1, and human gastric cancer cell line BGC-823.
# The cultivation of each cancer/tumor cell line is described as follows. The cancer/tumor cancer cells were cultivated in the respective complete medium supplemented with 100 μg/mL penicillin and 100 μg/mL streptomycin in an incubator (37° C., 100% relative humidity, 5% CO2). When adherent cancer/tumor cells reached 80% confluence during the log-phase, cell detachment was conducted using 0.6 mL of 0.3% trypsin. Afterwards, a cell suspension having a cell density of 1.0×10^4 cells/mL was prepared. 100 μL of the cell suspension (i.e. 1000 cancer/tumor cells) was added into wells of a 96-well plate (Cat. No. 3599, Corning Costar), followed by cultivation in an incubator (37° C., 100% relative humidity, 5% CO2) for 24 hours.
# As experimental groups, the tumor/cancer cells of each cell line were treated with the test tea samples prepared from one or more of the tea products and the comparative test samples prepared from one or more of the commercially available agents as obtained in section B of this example (for more detailed information about the tea product(s) and the commercially available product (s) used to treat each cell line, please see Table 4 below). To be specific, 6 to 10 test tea samples prepared from the same tea product and having different concentrations, as well as 6 to 10 comparative test samples prepared from the same commercially available agent and having different concentrations, were utilized to treat the tumor/cancer cells of each cell line. […]
# [7] = tested on: human leukemia cell line HL-60; test: In vitro antitumor/anticancer testing (CCK-8), HL-60; settings: Homo sapiens, HL-60, 48 h
# Experimental: as §1
# [8] = 0.125 μg/mL, read-out: Percent growth inhibition
# [9] = 0.25 μg/mL, read-out: Percent growth inhibition
# [10] = 0.5 μg/mL, read-out: Percent growth inhibition
# [11] = 1 μg/mL, read-out: Percent growth inhibition
# [12] = 2 μg/mL, read-out: Percent growth inhibition
# [13] = 4 μg/mL, read-out: Percent growth inhibition
# [14] = 8 μg/mL, read-out: Percent growth inhibition
# [15] = 16 μg/mL, read-out: Percent growth inhibition
# [16] = 32 μg/mL, read-out: Percent growth inhibition
structure (smiles),measurement,setting,value
N.N.[Cl][Pt][Cl] [Cisplatin],Percent growth inhibition,[1]; 0.0625 μg/mL,5.63%
same,Percent growth inhibition,[1]; 0.125 μg/mL,6.86%
same,Percent growth inhibition,[1]; 0.25 μg/mL,13.36%
same,Percent growth inhibition,[1]; 0.5 μg/mL,28.16%
same,Percent growth inhibition,[1]; 1 μg/mL,51.92%
same,Percent growth inhibition,[1]; 2 μg/mL,65.87%
same,Percent growth inhibition,[1]; 4 μg/mL,81.38%
same,Percent growth inhibition,[1]; 8 μg/mL,88.36%
same,Percent growth inhibition,[1]; 16 μg/mL,83.65%
same,IC50,[1]; SK-OV-3,IC50 (μg/mL) = 1.112
same,Percent growth inhibition,[2]; 0.0625 μg/mL,2.27%
same,Percent growth inhibition,[2]; 0.125 μg/mL,1.91%
same,Percent growth inhibition,[2]; 0.25 μg/mL,0.10%
same,Percent growth inhibition,[2]; 0.5 μg/mL,2.72%
same,Percent growth inhibition,[2]; 1 μg/mL,20.84%
same,Percent growth inhibition,[2]; 2 μg/mL,43.00%
same,Percent growth inhibition,[2]; 4 μg/mL,63.60%
same,Percent growth inhibition,[2]; 8 μg/mL,85.10%
same,Percent growth inhibition,[2]; 16 μg/mL,76.01%
same,IC50,[2]; U-87MG,IC50 (μg/mL) = 2.751
same,Percent growth inhibition,[3]; 0.125 μg/mL,6.73%
same,Percent growth inhibition,[3]; 0.25 μg/mL,8.55%
same,Percent growth inhibition,[3]; 0.5 μg/mL,14.21%
same,Percent growth inhibition,[3]; 1 μg/mL,29.60%
same,Percent growth inhibition,[3]; 3 μg/mL,88.98%
same,Percent growth inhibition,[3]; 4 μg/mL,57.57%
same,Percent growth inhibition,[3]; 7 μg/mL,36.60%
same,Percent growth inhibition,[3]; 16 μg/mL,97.45%
same,IC50,[3]; A549,IC50 (μg/mL) = 2.503
same,Percent growth inhibition,[4]; 0.0625 μg/mL,−3.05%
same,Percent growth inhibition,[4]; 0.125 μg/mL,−7.31%
same,Percent growth inhibition,[4]; 0.25 μg/mL,−11.93%
same,Percent growth inhibition,[4]; 0.5 μg/mL,−33.69%
same,Percent growth inhibition,[4]; 1 μg/mL,−29.75%
same,Percent growth inhibition,[4]; 2 μg/mL,16.62%
same,Percent growth inhibition,[4]; 4 μg/mL,90.1%
same,Percent growth inhibition,[4]; 8 μg/mL,98.3%
same,Percent growth inhibition,[4]; 16 μg/mL,98.98%
same,IC50,[4]; Hela,IC50 (μg/mL) = 2.656
COc1cccc2c1C(=O)c1c(O)c3c(c(O)c1C2=O)C[C@@](O)(C(=O)CO)C[C@@H]3O[C@H]1C[C@H](N)[C@@H](O)[C@H](C)O1 [Epirubicin],inhibition at 0.015625 µg/mL,"[5]; 0.015625 μg/mL, read-out: Percent growth inhibition",8.91%
same,inhibition at 0.03125 µg/mL,"[5]; 0.03125 μg/mL, read-out: Percent growth inhibition",1.2%
same,inhibition at 0.0625 µg/mL,"[5]; 0.0625 μg/mL, read-out: Percent growth inhibition",2.5%
same,inhibition at 0.125 µg/mL,[5]; [8],6.31%
same,inhibition at 0.25 µg/mL,[5]; [9],17.4%
same,inhibition at 0.5 µg/mL,[5]; [10],22.4%
same,inhibition at 1 µg/mL,[5]; [11],33.4%
same,inhibition at 2 µg/mL,[5]; [12],53.5%
same,inhibition at 4 µg/mL,[5]; [13],72.6%
same,IC50,[5]; read-out: IC50,1.7 µg/mL
same,inhibition at 0.125 µg/mL,[6]; [8],32.7%
same,inhibition at 0.25 µg/mL,[6]; [9],48%
same,inhibition at 0.5 µg/mL,[6]; [10],55.1%
same,inhibition at 1 µg/mL,[6]; [11],66.1%
same,inhibition at 2 µg/mL,[6]; [12],74%
same,inhibition at 4 µg/mL,[6]; [13],82%
same,inhibition at 8 µg/mL,[6]; [14],82.8%
same,inhibition at 16 µg/mL,[6]; [15],81.6%
same,inhibition at 32 µg/mL,[6]; [16],85.6%
same,IC50,"[6]; PC-3, read-out: IC50",0.334 µg/mL
COc1cc([C@@H]2c3cc4c(cc3[C@@H](O[C@@H]3O[C@@H]5CO[C@@H](C)O[C@H]5[C@H](O)[C@H]3O)[C@H]3COC(=O)[C@H]23)OCO4)cc(OC)c1O [Etoposide],inhibition at 0.125 µg/mL,[7]; [8],62.4%
same,inhibition at 0.25 µg/mL,[7]; [9],73.6%
same,inhibition at 0.5 µg/mL,[7]; [10],82.9%
same,inhibition at 1 µg/mL,[7]; [11],97.8%
same,inhibition at 2 µg/mL,[7]; [12],100%
same,inhibition at 4 µg/mL,[7]; [13],100%
same,inhibition at 8 µg/mL,[7]; [14],100%
same,inhibition at 16 µg/mL,[7]; [15],101%
same,inhibition at 32 µg/mL,[7]; [16],100%
same,IC50,[7]; read-out: IC50,0.0855 µg/mL
